Read-outs that look alike come from different tables or passages of the source.
How the values were obtained:
[1] = Ultracentrifugation plasma protein binding assay, rat plasma; type: in vitro ADME; conditions: both sexes, Sprague Dawley, rat
Method: (§1) Information on the chemicals and materials used in the plasma protein binding work can be found in Supplementary Text S10 and Table S3. Human and rodent plasma were evaluated for plasma protein binding using ultracentrifugation, as previously described. Working solutions of 3 mM of HFPO-DA, HFPO-TA, and HFPO-TeA were prepared separately in ethanol, with each working solution containing 3 mM of testosterone (Sigma-Aldrich; ≥98% pure) as a reference compound for assay performance. An aliquot of each stock solution (13.3 µL) was added to separate 15 mL tubes with 3.987 mL of plasma for a final assay concentration of 10 µM. The plasma solutions were incubated at 37 °C and 125 rpm for 60 min. One-hour stability samples (T60 min) were drawn in triplicate and diluted in four volumes of plasma ultrafiltrate. Aliquots (1 mL) from each plasma solution were drawn in triplicate and transferred to polycarbonate tubing. These samples underwent ultracentrifugation (Beckman OptimaMax; Beckman Coulter Inc., Brea, CA, USA) at 850,000× g for 4 h at 37 °C.
(§2) The remaining plasma solutions were returned for incubation at 37 °C and 125 rpm for an additional 4 h. Five-hour stability samples (T300 min) were then drawn in triplicate and diluted in four volumes of plasma ultrafiltrate. After ultracentrifugation, the aqueous fraction (AF) was collected by transferring the supernatant to a new tube and diluting in an equal volume of plasma for matrix matching. All samples were combined with 3 volumes of ice-cold ACN containing 16 ng/mL of ^13C3-HFPO-DA and 16 ng/mL of ^13C-Testosterone (Cambridge Isotope Laboratories; 98% pure). Samples were vigorously mixed, stored for 10 min at −20 °C, and then centrifuged at 12,000× g for 10 min at 4 °C. Supernatants were collected then stored at −70 °C prior to analysis.
(§3) Fraction unbound (fu) in plasma (fup) and percent stability calculations are detailed in Supplementary Text S10. Hepatic clearance, the fu in blood (fub) (fu in plasma adjusted for blood:plasma partitioning), and renal clearance were used to derive the steady-state concentration (Css) of each compound that will be used for in vitro–in vivo extrapolation (IVIVE). Renal clearance was calculated using the glomerular filtration rate (a species-dependent constant) and the fub. The Css calculation is detailed in Supplementary Text S11.
(§4) The gradient is available in Table S11. […]
(§5) Chemical stability in plasma was assessed
(§6) (F) Percent Stability = T300minutesT60minutes∗100

[2] = test system: Sprague Dawley rodent plasma; assay: as above; type: in vitro ADME; conditions: rat plasma, 10000 nM
Method: as §1, §2, §3, §4, §5, §6

hepatocytes = assay: Hepatic metabolite formation assay with non-targeted analysis; type: in vitro ADME, human and rat
Method: Extracts of plasma (50 µL), liver (10 mg), and hepatocyte metabolism assay media (10 µL) were analyzed by high-resolution, accurate mass non-targeted analysis (NTA) for the detection and identification of potential biotransformation products of HFPO-TeA. A mixture of ^13C-labeled PFAS compounds (MPAC-C-ES, Wellington Laboratories, Guelph, ON, Canada) were used as tracers. Samples were extracted, as detailed above (in vivo) and below (in vitro), and then analyzed in triplicate in a randomized order on a Sciex X500R QTOF. Additional information on NTA instrumental analysis and data processing parameters is presented in Supplementary Text S8 and Tables S8 and S10 [52]. […] A screening list of potential biotransformation products was generated using the U.S. EPA web application CTS: Chemical Transformation Simulator 1.0 and Biotransformer 3.0 [53, 54]. In some instances, molecular structure predictions were performed using MetFrag.
For the hepatic metabolite formation assays, the procedure described above was followed with the following modifications: assay concentrations of 50 and 100 µM were used, and samples were collected at times T0, T30, T60, and T120 min. Aliquots (10 µL) were combined with an equal volume of H2O. Non-targeted screening of potential biotransformation or degradation products of these samples was performed on the Sciex instrumentation described above.

[3] = plasma, Rat plasma, 10 µM, ultracentrifugation, read-out: Experimental fup (average fraction unbound in plasma)
[4] = rat plasma, 10000 nM, Rep A, read-out: Fraction Unbound in plasma (fup), Rep A
[5] = rat plasma, 10000 nM, Rep B, read-out: Fraction Unbound in plasma (fup), Rep B
[6] = rat plasma, 10000 nM, Rep C, read-out: Fraction Unbound in plasma (fup), Rep C

Compound | fraction unbound at 4 h, 10 µM [1, 3] | fraction unbound at 4 h, 10 µM [1, 4] | fraction unbound at 4 h, 10 µM [1, 5] | fraction unbound at 4 h, 10 µM [1, 6] | Average Stability (T5hr/ T1hr) [2] | Aqueous Fraction, Rep A [2] | Stability (T5hr/ T1hr), Rep A [2] | Time 1 hr concentration, Rep A [2] | Time 5 hr concentration, Rep A [2] | Aqueous Fraction, Rep B [2] | Stability (T5hr/ T1hr), Rep B [2] | Time 1 hr concentration, Rep B [2] | Time 5 hr concentration, Rep B [2] | Aqueous Fraction, Rep C [2] | Stability (T5hr/ T1hr), Rep C [2] | Time 1 hr concentration, Rep C [2] | Time 5 hr concentration, Rep C [2] | abundance relative to HFPO-TeA (hepatocytes; T0 active hepatocyte preparation) | presence of predicted biotransformation products (non-targeted analysis) (hepatocytes; in vitro hepatocyte assays)
O=C(O)C(F)(OC(F)(F)C(F)(OC(F)(F)C(F)(F)C(F)(F)F)C(F)(F)F)C(F)(F)F (centres unmarked) [HFPO-TA, perfluoro-(2,5-dimethyl-3,6-dioxanonanoic) acid] | 0.0018 | 0.00165 | 0.00156 | 0.00223 | 1.0261 | 16.00 nM | 0.9209 | 10.52 µM | 9.688 µM | 16.00 nM | 1.1708 | 8.76 µM | 10.256 µM | 22.40 nM | 0.9866 | 10.184 µM | 10.048 µM | < 1% | 
O=C(O)C(F)(OC(F)(F)C(F)(OC(F)(F)C(F)(OC(F)(F)C(F)(F)C(F)(F)F)C(F)(F)F)C(F)(F)F)C(F)(F)F (centres unmarked) [HFPO-TeA, perfluoro-(2,5,8-trimethyl-3,6,9-trioxadodecanoic) acid] | 0.0059 | 0.00493 | 0.00519 | 0.00748 | 1.1996 | 38.40 nM | 0.9294 | 8.384 µM | 7.792 µM | 35.20 nM | 1.0392 | 6.528 µM | 6.784 µM | 48.00 nM | 1.6301 | 3.936 µM | 6.416 µM |  | None of the biotransformation products predicted using CTS were observed
O=C(O)C(F)(OC(F)(F)C(F)(F)C(F)(F)F)C(F)(F)F (centres unmarked) [HFPO-DA, perfluoro-2-methyl-3-oxahexanoic acid] | 0.0307 | 0.0304 |  | 0.031 | 1.0909 | 265.60 nM | 1.0510 | 8.312 µM | 8.736 µM | 230.40 nM |  | 7.672 µM |  | 240 nM | 1.1308 | 6.848 µM | 7.744 µM |  | 
